“Also recorded” adds a separate entry of the source. Read-outs that look alike come from different tables or passages of the source.
Assays:
[1] = tested on: resistant (BL21/VIM-2) E. coli; format: cell-based
AmpC = AmpC (Enterobacter cloacae, UniProt P05364); assay: AmpC nitrocefin assay; format: biochemical, E.cloacae; settings: for inhibitory activity against AmpC (in words): highest concentration tested 25 μM; for inhibition at 25 µM: read-out: Max Inhibition @ Tested Concentration, AmpC Nitrocefin
Chain of AmpC (P05364 21-381): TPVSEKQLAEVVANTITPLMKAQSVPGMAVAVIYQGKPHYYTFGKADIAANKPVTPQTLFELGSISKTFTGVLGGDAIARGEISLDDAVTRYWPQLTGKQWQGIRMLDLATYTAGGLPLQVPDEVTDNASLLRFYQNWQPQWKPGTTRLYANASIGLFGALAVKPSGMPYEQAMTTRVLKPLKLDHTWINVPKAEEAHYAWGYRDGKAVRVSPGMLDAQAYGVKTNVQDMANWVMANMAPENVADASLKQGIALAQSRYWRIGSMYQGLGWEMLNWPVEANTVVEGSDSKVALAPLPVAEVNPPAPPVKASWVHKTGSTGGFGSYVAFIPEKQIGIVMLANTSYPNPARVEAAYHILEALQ

VIM-2 [2] = target: T1, VIM-2 (Escherichia coli, UniProt Q5U7L7); assay: VIM-2 FRET; format: biochemical; settings: @ 36 μM
IMP-1 = IMP-1 (Serratia marcescens, UniProt P52699); assay: biochemical; format: biochemical; settings: for inhibition at 56 µM: read-out: Max Inhibition @ Tested Concentration, IMP-1 Nitrocefin
Chain of IMP-1 (P52699 19-246 limits assumed): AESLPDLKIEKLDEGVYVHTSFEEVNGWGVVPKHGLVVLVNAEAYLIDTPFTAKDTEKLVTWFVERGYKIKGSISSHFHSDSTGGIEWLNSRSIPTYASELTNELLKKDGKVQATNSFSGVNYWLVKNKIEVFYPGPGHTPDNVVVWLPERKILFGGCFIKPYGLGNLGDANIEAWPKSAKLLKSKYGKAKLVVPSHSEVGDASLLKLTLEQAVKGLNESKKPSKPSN

VIM-2 [3] = target: T1, VIM-2; assay: Rapid dilution experiment
VIM-2 [4] = target: T1, VIM-2; format: biochemical; settings: for effect of absence of zinc in the assay buffer on potency: with vs without 50 μM ZnSO4
BL21/VIM2 E. coli = format: cell-based; settings: checkerboard microdilution
TEM-1 = TEM-1 (Escherichia coli, UniProt P62593); assay: TEM-1 nitrocefin assay; format: biochemical; settings: for inhibitory activity against TEM-1 (in words): highest concentration tested 25 μM; for inhibition at 25 µM: read-out: Max Inhibition @ Tested Concentration, TEM-1 Nitrocefin
Chain of TEM-1 (P62593 24-286 limits assumed): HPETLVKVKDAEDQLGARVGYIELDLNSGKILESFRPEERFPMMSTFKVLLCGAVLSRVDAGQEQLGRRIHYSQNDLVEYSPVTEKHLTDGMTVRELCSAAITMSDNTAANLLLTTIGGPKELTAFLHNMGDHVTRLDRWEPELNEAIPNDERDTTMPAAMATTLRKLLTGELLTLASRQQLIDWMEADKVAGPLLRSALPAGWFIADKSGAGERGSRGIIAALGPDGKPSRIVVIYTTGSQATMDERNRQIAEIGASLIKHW

[5] = tested on: non-resistant (BL21) E. coli; assay: MIC assay, non-resistant strain; format: cell-based
[6] = tested on: resistant E. coli (BL21/VIM-2); assay: Imipenem MIC potentiation by a single dose of inhibitor; format: cell-based; settings: for Imipenem MIC @ 50 μM of compound: BL21+VIM-2; for potentiation of imipenem efficacy (in words): resistant E. coli (BL21/VIM-2)
VIM-2 [7] = target: T1, VIM-2; format: biochemical
VIM-2 [8] = target: T1, VIM-2; assay: VIM-2 CCF2 kinetic assay; format: biochemical; settings: VIM-2, CCF2 format; SD of 3 replicates

SMILES	inhibitory activity against AmpC (in words) (AmpC)	activity in the IMP-1 nitrocefin assay (in words) (IMP-1)	effect of absence of zinc in the assay buffer on potency (VIM-2 [4])	inhibitory activity against TEM-1 (in words) (TEM-1)	Imipenem MIC @ 50 μM of compound [6] [µg/mL]	potentiation of imipenem efficacy (in words) [6]	mechanism of inhibition (VIM-2 [7])	IC50 (AmpC) [µM]	inhibition at 25 µM (AmpC) [%]	IC50 (IMP-1) [µM]	inhibition at 56 µM (IMP-1) [%]	IC50 (TEM-1) [µM]	inhibition at 25 µM (TEM-1) [%]	also measured
O=C(O)c1cc[c]([Hg][Cl])cc1 [pCMB, 4-chloromercuribenzoic acid]	no inhibitory activity	modest potency; also recorded: demonstrated potency	not significantly affected by the absence of zinc	no inhibitory activity	0.2	completely reverse the effects of VIM-2 on imipenem potency; also recorded: potentiate imipenem efficacy	slowly reversible or irreversible inhibitor; also recorded: irreversible / slowly reversible	–	–	–	–	–	–	Compound MIC [1]: 17.9 µg/mL; Max Inhibition @ Tested Concentration, AmpC Nitrocefin (AmpC; @ 25 μM): 0%; IC50 (AmpC; read-out: IC50 AmpC Nitrocefin): > 25 µM; Max Inhibition @ Tested Concentration, VIM-2 (CCF2) (VIM-2 [2]): NA (83% @ 36 μM); Max Inhibition @ Tested Concentration, IMP-1 Nitrocefin (IMP-1; @ 140 μM, 15 minutes of preincubation): NA (82% @ 140 μM); inhibition of VIM-2 (VIM-2 [3]; 24 μM, incubated 30 minutes at room temperature): 90%; recovery of VIM-2 activity after dilution (VIM-2 [3]; after 15 minutes, 1:100 dilution from 24 μM): 16.5%; Max Inhibition @ Tested Concentration, VIM-2 (Nitrocefin) (VIM-2 [4]; @ 15 μM): NA ^(e) (80% @ 15 μM); MIC alone (BL21/VIM2 E. coli): 17.9 µg/mL; Max Inhibition @ Tested Concentration, TEM-1 Nitrocefin (TEM-1; @ 25 μM): 0%; IC50 (TEM-1; read-out: IC50 TEM-1 Nitrocefin): > 25 µM; Compound MIC [5]: 17.9 µg/mL
O=C(CNC(=O)c1cc2cc(Cl)c(O)cc2oc1=O)N[C@@H]1C(=O)N2C(C(=O)O)=C(CSc3ccc4c(c3)C(=O)OC43c4ccc(O)cc4Oc4cc(O)ccc43)CS[C@H]12 [CCF2]	–	–	–	–	–	–	–	–	–	–	–	–	–	Km (VIM-2 [8]): 21 ± 7 µM
O=C1c2c(O)ccc(O)c2C(=O)c2c(NCCNCCO)ccc(NCCNCCO)c21 [Mitoxantrone, 1,4-Dihydroxy-5,8-bis([2-([2-hydroxyethyl]amino)ethyl]amino)-9,10-anthracenedione]	did not exhibit any inhibitory activity	did not exhibit any inhibitory activity	not significantly affected by the absence of zinc	did not exhibit any inhibitory activity	0.2	completely reverse the effects of VIM-2 on imipenem potency; also recorded: potentiate imipenem efficacy	–	> 25	0	> 56	0	> 25	0	activity in the IMP-1 nitrocefin assay (in words) (IMP-1; listed as mitoxantrone): inactive at the range of concentrations tested
COCc1nn[nH]c1CNS(=O)(=O)c1ccc(I)cc1 [Compound 2, 4-Iodo-N-((4-(methoxymethyl)-1H-1,2,3-triazol-5-yl)methyl)benzenesulfonamide]	–	inactive	not significantly affected by the absence of zinc; also recorded: independent of the concentration of zinc	–	1.9	–	competitive inhibitors	> 25	0	> 56	0	> 25	0	–
C#CCCOCc1nn[nH]c1CNS(=O)(=O)c1ccc(I)cc1 [Compound 1, 4-Iodo-N-((4-((but-3-ynyloxy)methyl)-1H-1,2,3-triazol-5-yl)methyl)benzenesulfonamide]	–	inactive	not significantly affected by the absence of zinc; also recorded: independent of the concentration of zinc	–	1.9	–	competitive inhibitors	> 25	0	> 56	0	> 25	0	–

— paper PMC2759276 (Bioorganic & medicinal chemistry, 2009)
